Data: US8486647B2, “Neuropeptide release assay for sodium channels” (priority 2010, dated 2013)
Where “and” joins values, the source holds several entries; their conditions need not be identical. Identical values can stand only once.

Experiments:
Scn9a^3.1/3.1 DRG = test: CGRP release assay, Scn9a^3.1/3.1 DRG; assay type: cell-based, mouse
Scn9a^+/+ DRG = test: CGRP release assay, Scn9a^+/+ DRG; assay type: cell-based, mouse

Molecule | inflammatory mix-induced release of CGRP (Scn9a^3.1/3.1 DRG) | inflammatory mix-induced release of CGRP (Scn9a^+/+ DRG) | CGRP released (Scn9a^+/+ DRG)
CCN(CC)CC(=O)Nc1c(C)cccc1C [Lidocaine] | notably enhanced | – | –
NC1=N[C@H](O)[C@H]2[C@H]3O[C@]4(O)O[C@@H]([C@@H](O)[C@@]2(N1)[C@@H]4O)[C@]3(O)CO [TTX, Tetrodotoxin] | – | notably enhanced | –
ProTx-II [Pro-TXII] | – | notably enhanced | 186 ± 40 pg/mL and 126 ± 25 pg/mL
